In brackets after ≈: the same amount, converted by molar mass. Where a name gives a salt, the structure may show the parent alone. Read-outs that look alike come from different tables or passages of the source.
Experiments:
MRSA Pyk = target: T1, MRSA Pyk (Staphylococcus aureus, UniProt Q6GG09); experiment: MRSA pyruvate kinase (PK) activity, continuous LDH-coupled assay; format: biochemical, methicillin resistant S. aureus (MRSA252)
T1 construct: made in house; host or cells: E. coli BL-21 (DE3)
Summary of the method: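 Activity monitored continuously as absorbance change at 340 nm from NADH oxidation via coupled lactate dehydrogenase, reactions started with 15 nM recombinant His-tagged PK (MRSA or human isoform) and run at 30° C for up to 5 min. Ki derived by varying inhibitor (0-400 nM) and PEP (2-20 mM) at 2 mM ADP; IC50 by four-parameter fitting.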

K. pneumoniae (C238) = experiment: In vitro susceptibility, broth microdilution (MIC); format: cell-based; settings: Klebsiella pneumoniae; K. pneumoniae (C238); read-out: Antimicrobial activity (MIC) K. pneumoniae
Summary of the method: (§1)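 CLSI 2-fold serial broth microdilution; K. pneumoniae C238 grown in L-broth, S. aureus ATCC 29213 in Mueller Hinton broth, plates incubated 18–24 h at 37 °C. MIC taken as lowest concentration giving complete growth inhibition by OD600 versus compound-free wells, background-subtracted.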

S. aureus (ATCC29213) = experiment: In vitro susceptibility, broth microdilution (MIC); format: cell-based; settings: Staphylococcus aureus
Summary of the method: as §1

VRE#2 (2010A) = experiment: In vitro susceptibility, broth microdilution (MIC); format: cell-based, vancomycin resistant Enterococci; settings: read-out: Antimicrobial activity (MIC) VRE#2
Description: (§2) Epidemic methicillin resistant S. aureus (MRSA) strain sequenced at the Sanger Centre (MRSA252, NRS71) was obtained from NARSA (Network on Antimicrobial Resistance in S. aureus). Methicillin sensitive S. aureus (ATCC 29213 and 25923), methicillin resistant S. aureus (ATCC BAA-1762), and Salmonella typhimurium (ATCC BAA-185) were obtained from ATCC, The Global Bioresource Center. Acinetobacter baumannii (ATCC 19606 and ATCC 17978), Klebsiella pneumonia (C238), vancomycin resistant Enterococci #2 (2010A) (VRE#2), MRSA (USA400, MW2) and Pseudomonas aeruginosa (PA0-1) were obtained from the laboratory of Dr B. B. Finlay at the University of British Columbia (Vancouver, Canada).
(§3) The antimicrobial activities of PK inhibitor candidates were determined using the 96-well microtiter standard 2-fold serial broth microdilution method as described by CLSI (formerly NCCLS) with the various gram-positive and gram-negative bacteria species mentioned above. Bacteria from a single colony were grown, overnight in either BHI Broth (VRE), mueller hinton broth (S. aureus 29213; MRSA USA400, A. baumannii 19606, MRSA BAA-1762) or L-broth (P. aeruginosa, S. typhimurium, K. pneumonia and A. baumannii 17978). Each compound was prepared in DMSO with 2-fold serial dilutions to give a final concentration of, 0.031 to 64 μg/ml. 10 μl of the compound solution was then added, in duplicate, to either, 190 μl of cation adjusted mueller hinton broth (CAMHB) or 190 μl CAMHB containing ˜2.5×10^5 CFU/ml of bacteria (final compound concentration 0.031 to 64 μg/ml). Culture plates were incubated for 18-24 h at 37° C., and optical density at 600 nm (OD600) was measured using a Benchmark Plus™ microplate spectrophotometer (Bio-Rad™). The absorbance control values for the series containing CAMHB and inhibitor were subtracted as background from the corresponding infected wells. Minimal inhibitory concentration (MIC) was defined as the lowest concentration of test compound leading to complete inhibition of cell growth in relation to compound-free control wells as determined by optical density. Vancomycin, methicillin and ciprofloxicin were used as reference compounds. All assays were run in triplicate or duplicate. Experiments were replicated at least twice to verify reproducibility using the above conditions.

[1] = system: A. baumannii (ATCC 19606); experiment: In vitro susceptibility, broth microdilution (MIC); format: cell-based; settings: Acinetobacter baumannii
Description: as §2, §3

MRSA (ATCC BAA-1762) = experiment: In vitro susceptibility, broth microdilution (MIC); format: cell-based, methicillin resistant S. aureus; settings: Staphylococcus aureus, read-out: Antimicrobial activity (MIC) MRSA ATCC BAA1762
Description: as §2, §3

[2] = system: A. baumannii (ATCC 17978); experiment: In vitro susceptibility, broth microdilution (MIC); format: cell-based; settings: Acinetobacter baumannii, ATCC17978; A. baumannii ATCC 17978 (values marked *); read-out: Antimicrobial activity (MIC) A. baumannii
Description: as §2, §3

[3] = S. aureus ATCC29213, 18-24 h, 37 C, read-out: Antimicrobial activity (MIC) S. aureus ATCC29213
[4] = ATCC19606, A. baumannii ATCC 19606 (values without asterisk), read-out: Antimicrobial activity (MIC) A. baumannii

Row | MIC [2] | Structure (SMILES) | IC50 (MRSA Pyk) | MIC (K. pneumoniae (C238)) | MIC (S. aureus (ATCC29213); [3]) | MIC (VRE#2 (2010A); VRE#2 (2010A)) | MIC [1, 4] | MIC (MRSA (ATCC BAA-1762); MRSA ATCC BAA-1762) | MIC (S. aureus (ATCC29213); ATCC29213, read-out: Antimicrobial activity (MIC) S. aureus ATCC29213) | MIC (MRSA (ATCC BAA-1762)) | MIC (VRE#2 (2010A)) | MIC ([1]; ATCC19606, read-out: Antimicrobial activity (MIC) A. baumannii)
1 | – | CN1CCC(CCNC(=O)c2c(/C=C/c3ccc(Cl)cc3)[nH]c3cc(Br)ccc23)CC1 [Compound 40, (E)-6-Bromo-2-(4-chlorostyryl)-N-(2-(1-methylpiperidin-4-yl)ethyl)-1 H-indole-3-carboxamide] | 100 to 1000 nM | 16 µg/mL (≈ 31.9 µM) | 8 µg/mL (≈ 16 µM) | 8 µg/mL (≈ 16 µM) | > 64 µg/mL | – | – | – | – | –
2 | – | CN(C)CCNC(=O)c1c(-c2cc3cc(Cl)ccc3[nH]2)[nH]c2cc(Br)ccc12 [Compound 73, 6-Bromo-5′-chloro-N-(2-(dimethylamino)ethyl)-1H,1′H-[2,2′-biindole]-3-carboxamide] | < 100 nM | 8 µg/mL (≈ 17.4 µM) | 8 µg/mL (≈ 17.4 µM) | 8 µg/mL (≈ 17.4 µM) | 64 µg/mL (≈ 139 µM) | – | – | – | – | –
3 | – | CN1CCCN(CCNC(=O)c2c(-c3cc4cc(Cl)ccc4[nH]3)[nH]c3cc(Br)ccc23)CC1 [Compound 119, 6-Bromo-5′-chloro-N-(2-(4-methyl-1,4-diazepan-1-yl)ethyl)-1H,1′H-[2,2′-biindole]-3-carboxamide] | < 100 nM | – | 16 µg/mL (≈ 30.3 µM) | 8 µg/mL (≈ 15.1 µM) | 64 µg/mL (≈ 121 µM) | 16 µg/mL (≈ 30.3 µM) | – | – | – | –
4 | – | COCCN1CCC(NCCNC(=O)c2c(-c3cc4cc(Cl)ccc4[nH]3)[nH]c3cc(Br)ccc23)CC1 [Compound 124, 6-Bromo-5′-chloro-N-(2-((1-(2-methoxyethyl)piperidin-4-yl)amino)ethyl)-1H,1′H-[2,2′-biindole]-3-carboxamide] | < 100 nM | – | 8 µg/mL (≈ 14 µM) | 8 µg/mL (≈ 14 µM) | 16 µg/mL (≈ 27.9 µM) | 8 µg/mL (≈ 14 µM) | – | – | – | –
5 | – | CN(C)CCNCCNC(=O)c1c(-c2cc3cc(Cl)ccc3[nH]2)[nH]c2cc(Br)ccc12 [Compound 126, 6-Bromo-5′-chloro-N-(2-((2-(dimethylamino)ethyl)amino)ethyl)-1H,1′H-[2,2′-biindole]-3-carboxamide] | < 100 nM | – | 16 µg/mL (≈ 31.8 µM) | 8 µg/mL (≈ 15.9 µM) | 32 µg/mL (≈ 63.6 µM) | 16 µg/mL (≈ 31.8 µM) | – | – | – | –
6 | – | COCCN1CCCN(CCNC(=O)c2c(-c3cc4cc(Cl)ccc4[nH]3)[nH]c3cc(Br)ccc23)CC1 [Compound 130, 6-bromo-5′-chloro-N-(2-(4-(2-methoxyethyl)-1,4-diazepan-1-yl)ethyl)-1H,1′H-2,2′-biindole-3-carboxamide] | < 100 nM | – | 16 µg/mL (≈ 27.9 µM) | 16 µg/mL (≈ 27.9 µM) | > 64 µg/mL | 16 µg/mL (≈ 27.9 µM) | – | – | – | –
7 | – | CNCCNC(=O)c1c(-c2cc3cc(Cl)ccc3[nH]2)[nH]c2cc(Br)ccc12 [Compound 136, 6-Bromo-5′-chloro-N-(2-(methylamino)ethyl)-1H,1′H-[2,2′-biindole]-3-carboxamide] | < 100 nM | – | 8 µg/mL (≈ 17.9 µM) | 8 µg/mL (≈ 17.9 µM) | 16 µg/mL (≈ 35.9 µM) | 8 µg/mL (≈ 17.9 µM) | – | – | – | –
8 | – | CCNCCNC(=O)c1c(-c2cc3cc(Cl)ccc3[nH]2)[nH]c2cc(Br)ccc12 [Compound 137, 6-Bromo-5′-chloro-N-(2-(ethylamino)ethyl)-1H,1′H-[2,2′-biindole]-3-carboxamide] | < 100 nM | – | 8 µg/mL (≈ 17.4 µM) | 8 µg/mL (≈ 17.4 µM) | 32 µg/mL (≈ 69.6 µM) | 8 µg/mL (≈ 17.4 µM) | – | – | – | –
9 | – | CC(C)(C)NCCNC(=O)c1c(-c2cc3cc(Cl)ccc3[nH]2)[nH]c2cc(Br)ccc12 [Compound 138, 6-Bromo-N-(2-(tert-butylamino)ethyl)-5′-chloro-1H,1′H-[2,2′-biindole]-3-carboxamide] | < 100 nM | – | 4 µg/mL (≈ 8.2 µM) | 4 µg/mL (≈ 8.2 µM) | 64 µg/mL (≈ 131 µM) | 8 µg/mL (≈ 16.4 µM) | – | – | – | –
10 | – | C[n+]1cccc(CNC(=O)c2c(-c3cc4cc(Cl)ccc4[nH]3)[nH]c3cc(Br)ccc23)c1 [Compound 148, 3-((6-bromo-5′-chloro-1H,1′H-[2,2′-biindole]-3-carboxamido)methyl)-1-methylpyridin-1-ium] | < 100 nM | – | 8 µg/mL | 16 µg/mL | > 64 µg/mL | 16 µg/mL | – | – | – | –
11 | – | C[n+]1ccc(CCNC(=O)c2c(-c3cc4cc(Cl)ccc4[nH]3)[nH]c3cc(Br)ccc23)cc1 [Compound 149, 4-(2-(6-bromo-5′-chloro-1H,1′H-[2,2′-biindole]-3-carboxamido)ethyl)-1-methylpyridin-1-ium] | < 100 nM | – | 16 µg/mL | 16 µg/mL | > 64 µg/mL | 16 µg/mL | – | – | – | –
12 | – | C[n+]1ccccc1CCNC(=O)c1c(-c2cc3cc(Cl)ccc3[nH]2)[nH]c2cc(Br)ccc12 [Compound 150] | < 100 nM | – | 16 µg/mL | 32 µg/mL | > 64 µg/mL | 16 µg/mL | – | – | – | –
13 | > 64 µg/mL | O=C(Nc1nc2cc(Br)ccc2s1)Nc1ccc(Cl)cc1C(F)(F)F [Compound 157, 1-(5-bromobenzo[d]thiazol-2-yl)-3-(4-chloro-2-(trifluoromethyl)phenyl)urea] | – | – | – | – | – | – | – | – | – | –
14 | – | CN(C)CC(=O)OCCCNC(=O)c1c(-c2cc3cc(Cl)ccc3[nH]2)[nH]c2cc(Br)ccc12 [Compound 184, 3-(6-Bromo-5′-chloro-1H, 1′H-[2,2′-biindole]-3-carboxamido)propyl Dimethylglycinate] | < 100 nM | – | > 64 µg/mL | > 64 µg/mL | > 64 µg/mL | 16 µg/mL (≈ 30.1 µM) | – | – | – | –
15 | – | C[N+](C)(C)CCCNC(=O)COc1cc2[nH]c(-c3cc4ccc(Br)cc4[nH]3)cc2cc1Cl [Compound 191, 3-(2-((6′-Bromo-5-chloro-1H,1′H-[2,2′-biindol]-6-yl)oxy)acetamido)-N,N,N-trimethylpropan-1-aminium Formate] | < 100 nM | – | – | – | – | – | 16 µg/mL | 16 µg/mL | 16 µg/mL | > 64 µg/mL
16 | – | OCCOc1cc2[nH]c(-c3cc4ccc(Br)cc4[nH]3)cc2cc1Cl [Compound 196, 2-((6′-Bromo-5-chloro-1H,1′H-[2,2′-biindol]-6-yl)oxy)ethan-1-ol] | < 100 nM | – | 16 µg/mL (≈ 39.4 µM) | > 64 µg/mL | > 64 µg/mL | 8 µg/mL (≈ 19.7 µM) | – | – | – | –
17 | – | CN(C)CC(=O)OCCOc1cc2[nH]c(-c3cc4ccc(Br)cc4[nH]3)cc2cc1Cl [Compound 197, 2-((6′-Bromo-5-chloro-1H,1′H-[2,2′-biindol]-6-yl)oxy)ethyl Dimethylglycinate] | < 100 nM | – | 8 µg/mL (≈ 16.3 µM) | 8 µg/mL (≈ 16.3 µM) | > 64 µg/mL | 8 µg/mL (≈ 16.3 µM) | – | – | – | –
18 | – | COc1cc2[nH]c(-c3[nH]c4cc(Br)ccc4c3C(=O)C(F)(F)F)cc2cc1Cl [Compound 200, 1-(6-Bromo-5′-chloro-6′-methoxy-1H, 1′H-[2,2′-biindol]-3-yl)-2,2,2-trifluoroethan-1-one] | < 100 nM | – | 4 µg/mL (≈ 8.48 µM) | 1 µg/mL (≈ 2.12 µM) | > 64 µg/mL | 1 µg/mL (≈ 2.12 µM) | – | – | – | –
19 | – | C[N+](C)(CCO/N=C(/c1c(-c2cc3cc(Cl)ccc3[nH]2)[nH]c2cc(Br)ccc12)C(F)(F)F)CC(=O)[O-] [Compound 223, 2-((2-(((1-(6-Bromo-5′-chloro-1H,1′H-[2,2′-biindol]-3-yl)-2,2,2-trifluoroethylidene)amino)oxy)ethyl)dimethylammonio)acetate] | 100 to 1000 nM | – | 16 µg/mL (≈ 27.3 µM) | 8 µg/mL (≈ 13.7 µM) | > 64 µg/mL | 8 µg/mL (≈ 13.7 µM) | – | – | – | –

Source: patent publication US20180312493A1, “Antibiotic Compounds, Pharmaceutical Formulations Thereof And Methods And Uses Therefor” (Simon Fraser University, priority 2015, published 2018)
